Assay results as given in PMC5612656, “In vitro and in vivo effects of 2,4 diaminoquinazoline inhibitors of the decapping scavenger enzyme DcpS: Context-specific modulation of SMN transcript levels” (PLoS ONE, 2017).

Tested on: spinal cord transcriptome
Experiment: RNA-Seq of spinal cord tissue from 2B/- and 2B/+ mice
Format: in vivo, mouse
[1] = spinal cord, 2B/- RG3039 vs 2B/- vehicle, adjusted p-value 2.55E-55

## Nc1nc(N)c2c(OCC3CCN(Cc4c(Cl)cccc4Cl)CC3)cccc2n1 [RG3039]
2B-Veh vs 2B-RG3039, gene Osbpl3
  log2(fold-change): 0.3051
2B-Veh vs 2B-RG3039, gene Phf13
  log2(fold-change): 0.2527
2B-Veh vs 2B-RG3039, gene Pigz
  log2(fold-change): -0.3408
2B-Veh vs 2B-RG3039, gene Pik3r1
  log2(fold-change): -0.2417
2B-Veh vs 2B-RG3039, gene Plcb1
  log2(fold-change): -0.2064
2B-Veh vs 2B-RG3039, gene Pld2
  log2(fold-change): 0.3673
2B-Veh vs 2B-RG3039, gene Prr18
  log2(fold-change): -0.2462
2B-Veh vs 2B-RG3039, gene Ptbp1
  log2(fold-change): 0.3576
2B-Veh vs 2B-RG3039, gene Ptpdc1
  log2(fold-change): -0.3585
2B-Veh vs 2B-RG3039, gene Pvrl3
  log2(fold-change): 0.3266
2B-Veh vs 2B-RG3039, gene Rab31
  log2(fold-change): -0.2849
2B-Veh vs 2B-RG3039, gene Ralb
  log2(fold-change): 0.1805
2B-Veh vs 2B-RG3039, gene Rapgef3
  log2(fold-change): -0.3391
2B-Veh vs 2B-RG3039, gene Rasal1
  log2(fold-change): -0.2345
2B-Veh vs 2B-RG3039, gene Rgs19
  log2(fold-change): 0.2532
2B-Veh vs 2B-RG3039, gene Serpina3n
  log2(fold-change): -0.2457
2B-Veh vs 2B-RG3039, gene Sh3pxd2a
  log2(fold-change): 0.3024
2B-Veh vs 2B-RG3039, gene Slc39a11
  log2(fold-change): 0.2556
2B-Veh vs 2B-RG3039, gene Sox13
  log2(fold-change): 0.3712
2B-Veh vs 2B-RG3039, gene Spon1
  log2(fold-change): -0.207
2B-Veh vs 2B-RG3039, gene Srsf9
  log2(fold-change): 0.255
2B-Veh vs 2B-RG3039, gene Stxbp3a
  log2(fold-change): -0.2437
2B-Veh vs 2B-RG3039, gene Swap70
  log2(fold-change): 0.2496
2B-Veh vs 2B-RG3039, gene Tfrc
  log2(fold-change): 0.316
2B-Veh vs 2B-RG3039, gene Tlcd1
  log2(fold-change): 0.158
2B-Veh vs 2B-RG3039, gene Tmod1
  log2(fold-change): -0.2447
2B-Veh vs 2B-RG3039, gene Tubb2b
  log2(fold-change): 0.2818
2B-Veh vs 2B-RG3039, gene Vgf
  log2(fold-change): 0.2475
2B-Veh vs 2B-RG3039, gene Vps37b
  log2(fold-change): 0.2543
2B-Veh vs 2B-RG3039, gene Wbscr27
  log2(fold-change): -0.2613
2B-Veh vs 2B-RG3039, gene Wnt7b
  log2(fold-change): 0.3209
2B-Veh vs 2B-RG3039, gene Zfp276
  log2(fold-change): -0.2722
2B-Veh vs 2B-RG3039, gene Zfp692
  log2(fold-change): -0.2503
2B-Veh vs 2B-RG3039, gene Zfp839
  log2(fold-change): -0.2535
2B-Veh vs 2B-RG3039, gene Zhx3
  log2(fold-change): -0.2128
2B-Veh vs 2B-RG3039, gene Zmat1
  log2(fold-change): -0.3673
mouse, in vivo
  log2(fold-change): 0.2853
Spinal cord RNA-Seq, 2B- RG vs. 2B+ Veh (sheet WT-Veh_vs_2B-859_all), adjusted p-value 1.03E-56
  log2(fold-change) Chodl transcript: -2.122
Spinal cord RNA-Seq, 2B- RG vs. 2B+ Veh (sheet WT-Veh_vs_2B-859_all), adjusted p-value 1.30E-36
  log2(fold-change) 4632404H12Rik transcript: 1.504
Spinal cord RNA-Seq, 2B- RG vs. 2B+ Veh (sheet WT-Veh_vs_2B-859_all), adjusted p-value 1.87E-42
  log2(fold-change) Spp1 transcript: -1.107
Spinal cord RNA-Seq, 2B- RG vs. 2B+ Veh (sheet WT-Veh_vs_2B-859_all), adjusted p-value 5.93E-43
  log2(fold-change) Gm26924 transcript: -1.355
Spinal cord RNA-Seq, 2B- RG vs. 2B+ Veh (sheet WT-Veh_vs_2B-859_all), adjusted p-value 8.66E-40
  log2(fold-change) Ahnak2 transcript: -1.26
Spinal cord RNA-Seq, RG3039 2B/- vs. vehicle 2B/-, adjusted p-value 0.000273937
  log2(fold-change) Tgtp1 transcript: 1.848
Spinal cord RNA-Seq, RG3039 2B/- vs. vehicle 2B/-, adjusted p-value 0.000300401
  log2(fold-change) Cfd transcript: -2.755
Spinal cord RNA-Seq, RG3039 2B/- vs. vehicle 2B/-, adjusted p-value 0.000330855
  log2(fold-change) Kcnb2 transcript: 1.602
Spinal cord RNA-Seq, RG3039 2B/- vs. vehicle 2B/-, adjusted p-value 0.000349974
  log2(fold-change) Fabp4 transcript: -2.327
Spinal cord RNA-Seq, RG3039 2B/- vs. vehicle 2B/-, adjusted p-value 0.00104281
  log2(fold-change) Reg3b transcript: 1.9386
Spinal cord RNA-Seq, RG3039 2B/- vs. vehicle 2B/-, adjusted p-value 0.0020931
  log2(fold-change) Saa3 transcript: -2.03
Spinal cord RNA-Seq, RG3039 2B/- vs. vehicle 2B/-, adjusted p-value 0.00223451
  log2(fold-change) Tgtp2 transcript: 1.688
Spinal cord RNA-Seq, RG3039 2B/- vs. vehicle 2B/-, adjusted p-value 0.00233365
  log2(fold-change) Slfn10-ps transcript: 1.807
Spinal cord RNA-Seq, RG3039 2B/- vs. vehicle 2B/-, adjusted p-value 0.00341009
  log2(fold-change) Gm10629 transcript: 1.585
Spinal cord RNA-Seq, RG3039 2B/- vs. vehicle 2B/-, adjusted p-value 0.0039906
  log2(fold-change) Myh4 transcript: -2.1375
Spinal cord RNA-Seq, RG3039 2B/- vs. vehicle 2B/-, adjusted p-value 0.00445577
  log2(fold-change) Amtn transcript: 1.585
Spinal cord RNA-Seq, RG3039 2B/- vs. vehicle 2B/-, adjusted p-value 0.00737848
  log2(fold-change) Gm21807 transcript: 1.663
Spinal cord RNA-Seq, RG3039 2B/- vs. vehicle 2B/-, adjusted p-value 0.0076012
  log2(fold-change) Ak3l2-ps transcript: 1.688
Spinal cord RNA-Seq, RG3039 2B/- vs. vehicle 2B/-, adjusted p-value 0.00761921
  log2(fold-change) Gm25014 transcript: 1.585
Spinal cord RNA-Seq, RG3039 2B/- vs. vehicle 2B/-, adjusted p-value 0.0177741
  log2(fold-change) Mrgprd transcript: 1.807
Spinal cord RNA-Seq, RG3039 2B/- vs. vehicle 2B/-, adjusted p-value 0.0259172
  log2(fold-change) Ucp1 transcript: -1.858
Spinal cord RNA-Seq, RG3039 2B/- vs. vehicle 2B/-, adjusted p-value 0.0498434
  log2(fold-change) Scn10a transcript: 1.7
Spinal cord RNA-Seq, RG3039 2B/- vs. vehicle 2B/-, adjusted p-value 1.16E-05
  log2(fold-change) 4930481A15Rik transcript: -2.273
Spinal cord RNA-Seq, RG3039 2B/- vs. vehicle 2B/-, adjusted p-value 1.21E-05
  log2(fold-change) Gm13558 transcript: -2
Spinal cord RNA-Seq, RG3039 2B/- vs. vehicle 2B/-, adjusted p-value 1.25E-05
  log2(fold-change) Itga2 transcript: 1.883
Spinal cord RNA-Seq, RG3039 2B/- vs. vehicle 2B/-, adjusted p-value 1.41E-22
  log2(fold-change) Ifi44 transcript: 2.678
Spinal cord RNA-Seq, RG3039 2B/- vs. vehicle 2B/-, adjusted p-value 2.00E-23
  log2(fold-change) Etnppl transcript: -2.764
Spinal cord RNA-Seq, RG3039 2B/- vs. vehicle 2B/-, adjusted p-value 2.62E-17
  log2(fold-change) Ada transcript: -2.097
Spinal cord RNA-Seq, RG3039 2B/- vs. vehicle 2B/-, adjusted p-value 2.77E-28
  log2(fold-change) Sgk1 transcript: -1.812
Spinal cord RNA-Seq, RG3039 2B/- vs. vehicle 2B/-, adjusted p-value 3.30E-07
  log2(fold-change) Dpep1 transcript: -2.385
Spinal cord RNA-Seq, RG3039 2B/- vs. vehicle 2B/-, adjusted p-value 3.37E-32
  log2(fold-change) Tmem52 transcript: -2.209
Spinal cord RNA-Seq, RG3039 2B/- vs. vehicle 2B/-, adjusted p-value 3.74E-09
  log2(fold-change) A830073O21Rik transcript: 1.69
Spinal cord RNA-Seq, RG3039 2B/- vs. vehicle 2B/-, adjusted p-value 4.16E-13
  log2(fold-change) Usp18 transcript: 1.709
Spinal cord RNA-Seq, RG3039 2B/- vs. vehicle 2B/-, adjusted p-value 4.39E-06
  log2(fold-change) Slc10a6 transcript: -2.443
Spinal cord RNA-Seq, RG3039 2B/- vs. vehicle 2B/-, adjusted p-value 4.66E-07
  log2(fold-change) Oas1a transcript: 1.712
Spinal cord RNA-Seq, RG3039 2B/- vs. vehicle 2B/-, adjusted p-value 4.90E-27
  log2(fold-change) Plin4 transcript: -3.356
Spinal cord RNA-Seq, RG3039 2B/- vs. vehicle 2B/-, adjusted p-value 5.02E-31
  log2(fold-change) Map3k6 transcript: -2.942
Spinal cord RNA-Seq, RG3039 2B/- vs. vehicle 2B/-, adjusted p-value 5.30E-09
  log2(fold-change) 8430408G22Rik transcript: -1.92
Spinal cord RNA-Seq, RG3039 2B/- vs. vehicle 2B/-, adjusted p-value 6.18E-07
  log2(fold-change) Fmo2 transcript: -2.118
Spinal cord RNA-Seq, RG3039 2B/- vs. vehicle 2B/-, adjusted p-value 7.17E-13
  log2(fold-change) Tmem82 transcript: -2.075
Spinal cord RNA-Seq, RG3039 2B/- vs. vehicle 2B/-, adjusted p-value 7.23E-13
  log2(fold-change) Sds transcript: -2.356
Spinal cord RNA-Seq, RG3039 2B/- vs. vehicle 2B/-, adjusted p-value 7.46E-06
  log2(fold-change) Gp2 transcript: 1.536
Spinal cord RNA-Seq, RG3039 2B/- vs. vehicle 2B/-, adjusted p-value 7.82E-08
  log2(fold-change) Gm11827 transcript: -2.193
Spinal cord RNA-Seq, RG3039 2B/- vs. vehicle 2B/-, adjusted p-value 8.74E-18
  log2(fold-change) Chml transcript: 1.585
Spinal cord RNA-Seq, RG3039 2B/- vs. vehicle 2B/-, adjusted p-value 9.01E-05
  log2(fold-change) Gm15622 transcript: 2.027
Spinal cord, 2B/+ control mice
  share of detectable genes modulated: less than 0.5%
Spinal cord, 2B/- RG3039 vs 2B/- vehicle, adjusted p-value 1.29E-57
  log2(fold-change), gene Mt1: -1.302
Spinal cord, 2B/- RG3039 vs 2B/- vehicle, adjusted p-value 1.67E-54
  log2(fold-change), gene Polr3e: -1.443
[1]
  log2(fold-change), gene Fam107a: -1.657
  log2(fold-change), gene Fkbp5: -1.583
Spinal cord, 2B/- RG3039 vs 2B/- vehicle, adjusted p-value 2.67E-76
  log2(fold-change), gene Mt2: -1.696
Spinal cord, 2B/- SMA mice
  Smn transcripts as detected by RNA-Seq: did not appear to increase Smn transcripts
Spinal cord, 2B/- SMA mice RG3039 vs vehicle
  share of the measurable genes with altered expression: approximately 26.8%
Spinal cord, 2B/- SMA mice RG3039 vs vehicle-treated 2B/-
  genes with significantly (P < 0.05) altered expression: 5,497 genes
Spinal cord, 2B/- mice
  genes affected in opposite directions by disease and by compound treatment: 591 genes
Vehicle vs RG3039 treated SMA mice
  ZPR1 expression in whole spinal cord by RNA-seq: no difference in ZPR1 expression
